How the values were obtained:
[1] = molecular target: T1, human somatostatin receptor 2 (Homo sapiens, UniProt P30874); test: Measurement of the binding inhibition rate of 125I-somatostatin; conditions: membrane fraction of SSTR2-HS5-9 CHO cells; 125I-somatostatin-14; 25° C., 60 minutes; compound concentration not given
T1 construct: expressed in transfected cells; host or cells: CHO cells, clone SSTR2-HS5-9 (membrane fraction)
Protocol: Measurement of the Binding Inhibition Rate of ^125I-Somatostatin
The receptor binding inhibition rate (%) of the subject compound was calculated using human.somatostatin receptor 2 expressing CHO cells and SSTR2-HS5-9 described in WO02/16350.
First, SSTR2-HS5-9 (1×10^9) was floated on a phosphate buffered saline supplemented with 5 mM EDTA (PBS-EDTA) and centrifuged. To the cell pellets was added 10 ml of a homogenate buffer for cells (10 mM NaHCO3, 5 mM EDTA, pH 7.5), which was homogenated using a Polytron homogenizer. The supernatant obtained by centrifugation at 400×g for 15 minutes was further centrifuged at 100,000×g for 1 hour to give a precipitate of the membrane fraction. The precipitates ere suspended in 2 ml of a buffer solution for assay [25 mM Tris-HCl, 1 mM EDTA (Ethylenediaminetetraacetic Acid), 0.1% BSA (Bovine Serum Albumin), 0.25 mM PMSF (Phenylmethylsulfonyl Fluoride), 1 μg/ml pepstatin, 20 μg/ml leupeptin, 10 μg/ml Phosphoramidone, pH 7.5], which was centrifuged at 100,000×g for 1 hour. The membrane fraction recovered as precipitates was suspended again in 20 ml of the buffer solution for assay, which was placed in tubes and stored at −80° C. The suspension was thawed and used at every use.
The thus-obtained membrane fraction of SSTR2-HS5-9 cells was diluted with a buffer solution for assay [25 mM Tris-HCl, 1 mM EDTA (Ethylenediaminetetraacetic Acid), 0.1% BSA (Bovine Serum Albumin), 0.25 mM PMSF (Phenylmethylsulfonyl Fluoride), 1 μg/ml pepstatin, 20 μg/ml leupeptin, 10 μg/ml Phosphoramidone, pH 7.51 to adjust the concentration to 3 μg/ml. The diluate was placed in tubes each in quantity of 173 μl. To this were simultaneously added 2 μl of a solution of a subject compound in DMSO and 25 μl of a 200 pM radioisotope-labeled somatostatin-14 (^125I-somatostatin-14: Amersham). For measurement of the maximum binding, a reaction mixture added with 2 μl of DMSO and 25 μl of a 200 pM ^125I-somatostatin was prepared. For measurement of non-specific binding, a reaction mixture added with 2 μl of a 100 μm somatostatin solution in DMSO and 25 μl of a 200 pM ^125I-somatostatin-14 solution was prepared at the same time. The mixtures were allowed to react at 25° C. for 60 minutes. Then, the reaction mixture was filtered by aspiration using a Whatman glass filter (GF-B) treated with polyethylenimine. After filtration, the radioactivity of ^125I-somatostatin-14 remaining on the filter paper was measured by a γ-counter. The binding inhibition rate (%) of each subject compound was calculated by the following formula: (TB−SB)/(TB−NSB)×100 • SB: radioactivity when a subject compound was added • TB: maximum binding radioactivity • NSB: non-specific binding radioactivity

[2] = tested on: glucagon secretion; test: Glucagon secretion inhibitory activity test (rat); assay type: in vivo; conditions: SD rats, male, fasted; 3 mg/kg body weight orally; insulin 2 U/kg s.c. 120 minutes later; plasma glucagon 30 minutes after insulin
Protocol: Glucagon Secretion Inhibitory Activity Test (Rat)
A 0.5% methylcellulose suspension containing the subject compound (3 mg/kg body weight) (compound administration group) or a 0.5% methylcellulose suspension (compound non-administration group) was orally administered to SD rats (male, 7 weeks of age) after fasting overnight, and 120 minutes later, insulin (2 U/kg body weight, Novo Nordisk) was subcutaneously administered. After 30 minutes from the insulin administration, the blood was drawn from the vein of eyegrounds of the rats using capillary, and blood plasma was separated by centrifugation. The concentration of glucagon in the obtained blood plasma was measured by radioimmunoassay using a Daiichi glucagon kit (Daiichi Isotope). As a non-treated group, the concentration of glucagon in the blood plasma of rat of the compound non-administration group free of insulin administration was measured in the same manner as above. […]

T1 sequence (P30874 whole entry): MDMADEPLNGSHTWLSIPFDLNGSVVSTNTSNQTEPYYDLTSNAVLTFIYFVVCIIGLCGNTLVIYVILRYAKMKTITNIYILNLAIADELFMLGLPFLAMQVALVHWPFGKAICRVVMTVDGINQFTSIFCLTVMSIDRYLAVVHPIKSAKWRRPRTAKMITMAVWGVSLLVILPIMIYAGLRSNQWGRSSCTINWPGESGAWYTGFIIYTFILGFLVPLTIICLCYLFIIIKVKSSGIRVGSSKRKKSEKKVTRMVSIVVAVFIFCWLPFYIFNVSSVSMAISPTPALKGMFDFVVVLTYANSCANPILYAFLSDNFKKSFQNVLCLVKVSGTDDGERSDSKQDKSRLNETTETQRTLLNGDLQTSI

## CCOc1ccc(CN(C)C)cc1NC(=O)[C@H](NC(=O)N1CCN(c2ccc(F)cc2)CC1)[C@@H](C)c1c[nH]c2ccccc12 [Example 67, N-((1R,2S)-1-(((5-((dimethylamino)methyl)-2-ethoxyphenyl)amino)carbonyl)-2-(1H-indol-3-yl)propyl)-4-(4-fluorophenyl)-1-piperazinecarboxamide]
[1]
  binding inhibition rate (%): 96%

## C[C@@H](c1c[nH]c2ccccc12)[C@@H](NC(=O)N1CCC(c2ccccc2)CC1)C(=O)Nc1cccc(CN(C)C)c1 [Example 1, N-((1R,2S)-1-(((3-((dimethylamino)methyl)phenyl)amino)carbonyl)-2-(1H-indol-3-yl)propyl)-4-phenyl-1-piperidinecarboxamide]
[2]
  glucagon secretion (% of control): 9.5 % of control
[1]
  binding inhibition rate (%): 98%

## CCOc1ccc(CN(C)C)cc1NC(=O)[C@H](NC(=O)N1CCC(c2ccccc2)CC1)[C@@H](C)c1c[nH]c2ccccc12 [Example 54, N-((1R,2S)-1-(((5-((dimethylamino)methyl)-2-ethoxyphenyl)amino)carbonyl)-2-(1H-indol-3-yl)propyl)-4-phenyl-1-piperidinecarboxamide]
[1]
  binding inhibition rate (%): 100%

## C[C@@H](c1c[nH]c2ccccc12)[C@@H](NC(=O)N1CCC(Oc2ccc(F)cc2)CC1)C(=O)Nc1cccc(CN(C)C)c1 [Example 2, N-( (1R,2S)-1-( ((3-((dimethylamino)methyl)phenyl)amino)carbonyl)-2-(1H-indol-3-yl)propyl)-4-(4-fluorophenoxy)-1-piperidinecarboxamide]
[1]
  binding inhibition rate (%): 100%

— patent publication US20060223826A1, “Indole derivatives as somatostatin agonists or antagonists” (Takeda Pharmaceutical Company Limited Intellectual Property …, priority 2002, published 2006)
